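In this assay, cells in 96-well plates receive the compound at five concentrations for 48 hours. Endpoints are linearly interpolated between the surrounding concentrations. GI50: concentration for 50% inhibition of growth.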 Active and inactive are the calls of the source. Cut-off read from the data, not from the text of the source: active = GI50 up to about 1.1 µM and inactive = higher.
Key:
Experiment in all cases: growth of human tumour cells (NCI), 48 h
A549 = system: A549
CAKI-1 = system: CAKI-1
EKVX = system: EKVX
HCT-116 = system: HCT-116
HL-60 = system: HL-60
HOP-92 = system: HOP-92
KM-20L2 = system: KM-20L2
LOX IMVI = system: LOX IMVI
MDA-N = system: MDA-N
MOLT-4 = system: MOLT-4
NCI-H226 = system: NCI-H226
NCI-H23 = system: NCI-H23
NCI-H460 = system: NCI-H460
SK-MEL-5 = system: SK-MEL-5
SN12C = system: SN12C
SNB-75 = system: SNB-75
SR = system: SR
SW-620 = system: SW-620
T47D = system: T47D
TK-10 = system: TK-10

Measured: GI50

COc1cc(NS(C)(=O)=O)ccc1Nc1c2ccccc2nc2c1[nH]c1ccc(NC3OC(CO)C(O)C(O)C3O)cc12 (stereo not given)
active: A549 < 13.4 nM | CAKI-1 < 10 nM | EKVX 782 nM | HCT-116 47.2 nM | HL-60 15.3 nM | HOP-92 22.4 nM | KM-20L2 163 nM | LOX IMVI < 15.4 nM | MDA-N 474 nM | MOLT-4 < 10 nM | NCI-H226 < 18.1 nM | NCI-H23 21.5 nM | NCI-H460 < 10 nM | SK-MEL-5 85.9 nM | SN12C 20.3 nM | SNB-75 25.1 nM | SR < 10 nM | SW-620 < 34.8 nM | T47D 32.7 nM | TK-10 197 nM

— ChEMBL document CHEMBL1201862, “PubChem BioAssay data set” (2004)
